Results from the supplement of paper PMC10307832.

Columns and labels:
Test in all cases: relative viability (nuclei count vs DMSO), 5 days (fraction); higher = more cells survive
Wnt-C59 + Trametinib = compound: CC1=NC=CC(=C1)C2=CC=C(C=C2)CC(=O)NC3=CC=C(C=C3)C4=CN=CC=C4 [Wnt-C59] + CC(=O)Nc1cccc(-n2c(=O)n(C3CC3)c(=O)c3c(Nc4ccc(I)cc4F)n(C)c(=O)c(C)c32)c1 [Trametinib] (partner 0.02 µM)
How it was run: (§1)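 Values are medians from duplicate plates. Each reflects relative viability, defined as the nuclei count of treated wells over that of vehicle wells. Lung cancer cell lines in 1536-well plates were pin-tool dosed one day after seeding with one drug alone or with a fixed anchor-drug dose plus five library-drug doses (not always all listed) in √10 steps, then fixed, stained and imaged at 4× after 5 days.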

Wnt-C59 + Alpelisib = compound: CC1=NC=CC(=C1)C2=CC=C(C=C2)CC(=O)NC3=CC=C(C=C3)C4=CN=CC=C4 [Wnt-C59] + Cc1nc(NC(=O)N2CCC[C@H]2C(N)=O)sc1-c1ccnc(C(C)(C)C(F)(F)F)c1 [Alpelisib] (partner 2 µM)
How it was run: as §1

Wnt-C59 + Pemetrexed = compound: CC1=NC=CC(=C1)C2=CC=C(C=C2)CC(=O)NC3=CC=C(C=C3)C4=CN=CC=C4 [Wnt-C59] + Nc1nc2[nH]cc(CCc3ccc(C(=O)N[C@@H](CCC(=O)O)C(=O)O)cc3)c2c(=O)[nH]1 [Pemetrexed] (partner 0.2 µM)
How it was run: as §1

Wnt-C59 + Decitabine = compound: CC1=NC=CC(=C1)C2=CC=C(C=C2)CC(=O)NC3=CC=C(C=C3)C4=CN=CC=C4 [Wnt-C59] + Nc1ncn([C@H]2C[C@H](O)[C@@H](CO)O2)c(=O)n1 [Decitabine] (partner 2 µM)
How it was run: as §1

Cell Line: NCI-H1666
- relative viability (Wnt-C59 + Trametinib; first compound 0.001 µM): 0.894
- relative viability (Wnt-C59 + Trametinib; first compound 0.01 µM): 0.762
- relative viability (Wnt-C59 + Trametinib; first compound 0.03162 µM): 0.94
- relative viability (Wnt-C59 + Trametinib; first compound 0.1 µM): 0.79
- relative viability (Wnt-C59 + Alpelisib; first compound 0.001 µM): 0.874
- relative viability (Wnt-C59 + Alpelisib; first compound 0.01 µM): 0.895
- relative viability (Wnt-C59 + Alpelisib; first compound 0.03162 µM): 0.974
- relative viability (Wnt-C59 + Alpelisib; first compound 0.1 µM): 0.942
- relative viability (Wnt-C59 + Pemetrexed; first compound 0.001 µM): 0.865
- relative viability (Wnt-C59 + Pemetrexed; first compound 0.01 µM): 0.799
- relative viability (Wnt-C59 + Pemetrexed; first compound 0.03162 µM): 0.828
- relative viability (Wnt-C59 + Pemetrexed; first compound 0.1 µM): 0.869
- relative viability (Wnt-C59 + Decitabine; first compound 0.001 µM): 0.753
- relative viability (Wnt-C59 + Decitabine; first compound 0.01 µM): 0.73
- relative viability (Wnt-C59 + Decitabine; first compound 0.03162 µM): 0.732
- relative viability (Wnt-C59 + Decitabine; first compound 0.1 µM): 0.767

Cell Line: NCI-H1734
- relative viability (Wnt-C59 + Trametinib; first compound 0.001 µM): 0.675
- relative viability (Wnt-C59 + Trametinib; first compound 0.01 µM): 0.744
- relative viability (Wnt-C59 + Trametinib; first compound 0.03162 µM): 0.77
- relative viability (Wnt-C59 + Trametinib; first compound 0.1 µM): 0.632
- relative viability (Wnt-C59 + Alpelisib; first compound 0.001 µM): 0.807
- relative viability (Wnt-C59 + Alpelisib; first compound 0.01 µM): 0.68
- relative viability (Wnt-C59 + Alpelisib; first compound 0.03162 µM): 0.703
- relative viability (Wnt-C59 + Alpelisib; first compound 0.1 µM): 0.726
- relative viability (Wnt-C59 + Pemetrexed; first compound 0.001 µM): 0.414
- relative viability (Wnt-C59 + Pemetrexed; first compound 0.01 µM): 0.389
- relative viability (Wnt-C59 + Pemetrexed; first compound 0.03162 µM): 0.423
- relative viability (Wnt-C59 + Pemetrexed; first compound 0.1 µM): 0.394
- relative viability (Wnt-C59 + Decitabine; first compound 0.001 µM): 0.501
- relative viability (Wnt-C59 + Decitabine; first compound 0.01 µM): 0.452
- relative viability (Wnt-C59 + Decitabine; first compound 0.03162 µM): 0.558
- relative viability (Wnt-C59 + Decitabine; first compound 0.1 µM): 0.523

Cell Line: NCI-H1755
- relative viability (Wnt-C59 + Trametinib; first compound 0.001 µM): 0.797
- relative viability (Wnt-C59 + Trametinib; first compound 0.01 µM): 0.792
- relative viability (Wnt-C59 + Trametinib; first compound 0.03162 µM): 0.759
- relative viability (Wnt-C59 + Trametinib; first compound 0.1 µM): 0.719
- relative viability (Wnt-C59 + Alpelisib; first compound 0.001 µM): 0.932
- relative viability (Wnt-C59 + Alpelisib; first compound 0.01 µM): 0.891
- relative viability (Wnt-C59 + Alpelisib; first compound 0.03162 µM): 0.907
- relative viability (Wnt-C59 + Alpelisib; first compound 0.1 µM): 0.908
- relative viability (Wnt-C59 + Pemetrexed; first compound 0.001 µM): 0.421
- relative viability (Wnt-C59 + Pemetrexed; first compound 0.01 µM): 0.407
- relative viability (Wnt-C59 + Pemetrexed; first compound 0.03162 µM): 0.419
- relative viability (Wnt-C59 + Pemetrexed; first compound 0.1 µM): 0.402
- relative viability (Wnt-C59 + Decitabine; first compound 0.001 µM): 0.696
- relative viability (Wnt-C59 + Decitabine; first compound 0.01 µM): 0.728
- relative viability (Wnt-C59 + Decitabine; first compound 0.03162 µM): 0.725
- relative viability (Wnt-C59 + Decitabine; first compound 0.1 µM): 0.691

Cell Line: NCI-H1792
- relative viability (Wnt-C59 + Trametinib; first compound 0.001 µM): 0.395
- relative viability (Wnt-C59 + Trametinib; first compound 0.01 µM): 0.348
- relative viability (Wnt-C59 + Trametinib; first compound 0.03162 µM): 0.526
- relative viability (Wnt-C59 + Trametinib; first compound 0.1 µM): 0.352
- relative viability (Wnt-C59 + Alpelisib; first compound 0.001 µM): 0.707
- relative viability (Wnt-C59 + Alpelisib; first compound 0.01 µM): 0.693
- relative viability (Wnt-C59 + Alpelisib; first compound 0.03162 µM): 0.806
- relative viability (Wnt-C59 + Alpelisib; first compound 0.1 µM): 0.785
- relative viability (Wnt-C59 + Pemetrexed; first compound 0.001 µM): 0.723
- relative viability (Wnt-C59 + Pemetrexed; first compound 0.01 µM): 0.714
- relative viability (Wnt-C59 + Pemetrexed; first compound 0.03162 µM): 0.777
- relative viability (Wnt-C59 + Pemetrexed; first compound 0.1 µM): 1.18
- relative viability (Wnt-C59 + Decitabine; first compound 0.001 µM): 0.636
- relative viability (Wnt-C59 + Decitabine; first compound 0.01 µM): 0.524
- relative viability (Wnt-C59 + Decitabine; first compound 0.03162 µM): 0.536
- relative viability (Wnt-C59 + Decitabine; first compound 0.1 µM): 0.506

Cell Line: NCI-H1793
- relative viability (Wnt-C59 + Trametinib; first compound 0.001 µM): 0.495
- relative viability (Wnt-C59 + Trametinib; first compound 0.01 µM): 0.408
- relative viability (Wnt-C59 + Trametinib; first compound 0.03162 µM): 0.385
- relative viability (Wnt-C59 + Trametinib; first compound 0.1 µM): 0.425
- relative viability (Wnt-C59 + Alpelisib; first compound 0.001 µM): 0.827
- relative viability (Wnt-C59 + Alpelisib; first compound 0.01 µM): 0.536
- relative viability (Wnt-C59 + Alpelisib; first compound 0.03162 µM): 0.898
- relative viability (Wnt-C59 + Alpelisib; first compound 0.1 µM): 0.668
- relative viability (Wnt-C59 + Pemetrexed; first compound 0.001 µM): 0.813
- relative viability (Wnt-C59 + Pemetrexed; first compound 0.01 µM): 0.693
- relative viability (Wnt-C59 + Pemetrexed; first compound 0.03162 µM): 0.914
- relative viability (Wnt-C59 + Pemetrexed; first compound 0.1 µM): 0.953
- relative viability (Wnt-C59 + Decitabine; first compound 0.001 µM): 0.458
- relative viability (Wnt-C59 + Decitabine; first compound 0.01 µM): 0.461
- relative viability (Wnt-C59 + Decitabine; first compound 0.03162 µM): 0.615
- relative viability (Wnt-C59 + Decitabine; first compound 0.1 µM): 0.521

Cell Line: NCI-H1915
- relative viability (Wnt-C59 + Trametinib; first compound 0.001 µM): 0.302
- relative viability (Wnt-C59 + Trametinib; first compound 0.01 µM): 0.304
- relative viability (Wnt-C59 + Trametinib; first compound 0.03162 µM): 0.346
- relative viability (Wnt-C59 + Trametinib; first compound 0.1 µM): 0.31
- relative viability (Wnt-C59 + Alpelisib; first compound 0.001 µM): 1.07
- relative viability (Wnt-C59 + Alpelisib; first compound 0.01 µM): 1.01
- relative viability (Wnt-C59 + Alpelisib; first compound 0.03162 µM): 1.07
- relative viability (Wnt-C59 + Alpelisib; first compound 0.1 µM): 1.03
- relative viability (Wnt-C59 + Pemetrexed; first compound 0.001 µM): 0.502
- relative viability (Wnt-C59 + Pemetrexed; first compound 0.01 µM): 0.464
- relative viability (Wnt-C59 + Pemetrexed; first compound 0.03162 µM): 0.517
- relative viability (Wnt-C59 + Pemetrexed; first compound 0.1 µM): 0.505
- relative viability (Wnt-C59 + Decitabine; first compound 0.001 µM): 0.261
- relative viability (Wnt-C59 + Decitabine; first compound 0.01 µM): 0.261
- relative viability (Wnt-C59 + Decitabine; first compound 0.03162 µM): 0.262
- relative viability (Wnt-C59 + Decitabine; first compound 0.1 µM): 0.251

Cell Line: NCI-H1944
- relative viability (Wnt-C59 + Trametinib; first compound 0.001 µM): 0.433
- relative viability (Wnt-C59 + Trametinib; first compound 0.01 µM): 0.449
- relative viability (Wnt-C59 + Trametinib; first compound 0.03162 µM): 0.431
- relative viability (Wnt-C59 + Trametinib; first compound 0.1 µM): 0.369
- relative viability (Wnt-C59 + Alpelisib; first compound 0.001 µM): 0.767
- relative viability (Wnt-C59 + Alpelisib; first compound 0.01 µM): 0.755
- relative viability (Wnt-C59 + Alpelisib; first compound 0.03162 µM): 0.785
- relative viability (Wnt-C59 + Alpelisib; first compound 0.1 µM): 0.755
- relative viability (Wnt-C59 + Pemetrexed; first compound 0.001 µM): 0.615
- relative viability (Wnt-C59 + Pemetrexed; first compound 0.01 µM): 0.594
- relative viability (Wnt-C59 + Pemetrexed; first compound 0.03162 µM): 0.639
- relative viability (Wnt-C59 + Pemetrexed; first compound 0.1 µM): 0.602
- relative viability (Wnt-C59 + Decitabine; first compound 0.001 µM): 0.501
- relative viability (Wnt-C59 + Decitabine; first compound 0.01 µM): 0.459
- relative viability (Wnt-C59 + Decitabine; first compound 0.03162 µM): 0.51
- relative viability (Wnt-C59 + Decitabine; first compound 0.1 µM): 0.43

Cell Line: NCI-H1975
- relative viability (Wnt-C59 + Trametinib; first compound 0.001 µM): 0.414
- relative viability (Wnt-C59 + Trametinib; first compound 0.01 µM): 0.38
- relative viability (Wnt-C59 + Trametinib; first compound 0.03162 µM): 0.33
- relative viability (Wnt-C59 + Trametinib; first compound 0.1 µM): 0.349
- relative viability (Wnt-C59 + Alpelisib; first compound 0.001 µM): 0.67
- relative viability (Wnt-C59 + Alpelisib; first compound 0.01 µM): 0.591
- relative viability (Wnt-C59 + Alpelisib; first compound 0.03162 µM): 0.707
- relative viability (Wnt-C59 + Alpelisib; first compound 0.1 µM): 0.704
- relative viability (Wnt-C59 + Pemetrexed; first compound 0.001 µM): 0.321
- relative viability (Wnt-C59 + Pemetrexed; first compound 0.01 µM): 0.307
- relative viability (Wnt-C59 + Pemetrexed; first compound 0.03162 µM): 0.288
- relative viability (Wnt-C59 + Pemetrexed; first compound 0.1 µM): 0.311
- relative viability (Wnt-C59 + Decitabine; first compound 0.001 µM): 0.419
- relative viability (Wnt-C59 + Decitabine; first compound 0.01 µM): 0.385
- relative viability (Wnt-C59 + Decitabine; first compound 0.03162 µM): 0.423
- relative viability (Wnt-C59 + Decitabine; first compound 0.1 µM): 0.38
